This is an account of results in patent US20150050219A1, “COLOURED SOLUTION IN PARTICULAR FOR USE IN SURGICAL METHODS FOR THE TREATMENT OF THE BODIES OF HUMANS OR ANIMALS” (BBS S.r.l., priority 2012, published 2015).

Each structure is given as a SMILES string.

The nature of the data set: density at 20° C. It is filed as physicochemical. The conditions noted are these: temperature of 20° C. On the procedure:
whilst the dye is defined by the formula (V) and is present in a weight ratio of 0.008% to the solvent. In particular, with the solvent consisting of perfluorooctane (VI), the solution has an absorbance equal to 1,403 at a wavelength of 580 nm. Said solution also has a density of 1,756 kg/l at a temperature of 20° C. (substantially equal to that of perfluorooctane alone which, at 20° C., is equal to 1,755).

Consider `FC(F)(F)C(F)(F)C(F)(F)C(F)(F)C(F)(F)C(F)(F)C(F)(F)C(F)(F)F` [perfluorooctane], for which the density is 1,755 kg/l.
